# Key:
# [1] = previous reports; cited from earlier work
# [2] = tested on: HLA-DQA1*0201
# From the text: The confirmatory study also offered a means to evaluate the specificity of the lapatanib effect by assessment of the letrozole-only arm in the same trial.
SMILES,type of liver injury [1],DQA1*0201 carriage in ALT cases ([2]; letrozole-only comparator treatment arm (3/11)),DQA1*0201 carriage in ALT controls ([2]; letrozole-only comparator treatment arm (40/159)),"cumulative incidence of ALT elevation, DQA1*0201 carriers compared with non-carriers ([2]; letrozole-only treated patients, FIG. 3)"
CC1(C)S[C@@H]2[C@H](NC(=O)[C@H](N)c3ccc(O)cc3)C(=O)N2[C@H]1C(=O)O [Amoxicillin],cholestatic,,,
Cc1onc(-c2c(F)cccc2Cl)c1C(=O)N[C@@H]1C(=O)N2[C@@H]1SC(C)(C)[C@@H]2C(=O)O [flucloxacillin],cholestatic,,,
"N#Cc1ccc(C(c2ccc(C#N)cc2)n2cncn2)cc1 [letrozole, 4-[(4-cyanophenyl)-(1,2,4-triazol-1-yl)methyl]benzonitrile]",,27%,25%,did not differ

# Source: patent US9539257B2, “Method of treating cancer” (NOVARTIS AG, priority 2009, dated 2017)
